Experiment [1] has as its system β-catenin activity in DLD-1 cells. Nature of the experiment: Wnt/β-catenin specific luciferase reporter (SuperTopFlash) in DLD-1 cells. The format is cell-based. Conditions: FIG. 2B. The method, then:
Representative IWRs from each chemotype were evaluated for their ability to inhibit purified recombinant Tnks1 protein (Tnks1 […] protein). Parsylation of immobilized histone protein was determined by colorimetric detection of incorporated biotinylated NAD+ in 96 well format.
Luciferase Reporter Assays.
Assays were executed as described using a Dual Luciferase kit (Promega), and SuperTopFlash and control SV40-driven Renilla luciferase reporters (SV40-Ren luc) (Chen, et al., 2009).

For experiment [2], the system named is SW403 cells. In words: Cell growth of SW403 cells. The experiment is classed as cell-based. Conditions: FIG. 2C.
Experiment [3] has as its system Tnks 1 and 2, Axin, β-catenin in SW480 cells. Nature of the experiment: Western blot of Tnks, Axin and β-catenin levels in SW480 cells. The experiment is classed as cell-based. The conditions noted are these: SW480 cells (truncated Apc), FIG. 1A.
Method: (FIG. 1A) Biochemical markers of Tnks inhibition associated with the Wnt/β-catenin pathway. […] (FIG. 1B) A biochemical screen to identify additional Tnks inhibitors from the IWR collection of Wnt pathway inhibitors. The effects of the IWR compounds on Tnks 1 and 2, β-catenin, and acetylated tubulin (Ac-Tub; loading control) expression levels were determined in SW480 cells by Western blot analysis.
For Western blot analysis cell lysates were generated with either PBS-NP40 buffer [phosphate-buffered saline (PBS)/1% NP40], or Tris-Triton X-100 buffer [50 mM Tris (pH 8), 200 mM NaCl, 1 mM EDTA, 1% Triton X-100, 10% glycerol, 1 mM DTT, 0.5 mM deoxycholate]. Both buffers were supplemented with protease inhibitor cocktail (Sigma). […] The lysates were cleared by centrifugation at 15,000 rpm for 10 min.
Experiment [4] deals with T1, telomerase (Homo sapiens, UniProt O14746).
T1 construct: endogenous in cells; host or cells: HeLa
Nature of the experiment: Digital droplet telomerase extension (ddTRAP) assay. The experiment is classed as cell-based. The conditions noted are these: HeLa cells treated for 24 hrs, FIG. 4F. An excerpt:
FIGS. 4A-4F show Tnks inhibitors induce telomeric stress in human cells independently of Wnt/β-catenin pathway inhibition. (FIG. 4A) Porcn inhibitors afford a Tnks-independent approach to disrupting Wnt/β-catenin signaling. Chemicals targeting the Wnt acyltransferase Porcn abrogate Wnt palmitoylation which in turn results in loss of activity of the Frizzled (Fzd) family of Wnt receptors. Fzd receptors directly induce activation of the cytoplasmic signaling molecule Dishevelled (Dvl) in a ligand-dependent manner, which in turn results in activation of β-catenin and transcription mediated by the TCF family of DNA binding proteins. […] The appearance of co-localized Terf2 and pH2A.X (an indicator of DNA damage at the telomere ends; Telomere Induced Foci or TIFs) was scored using indirect immunofluorescence in Hela cells (expressing wild-type Apc protein). (FIG. 4C) Quantification of results represented in “B”. Cells with >5 TIFs were scored as positive for telomeric damage (left bars). […]
The ddTRAP assay was performed as previously described (Ludlow, et al., 2014). […] Fluorescence was quantitated using a QX200 droplet reader (Bio-Rad) in the 6-Fam channel. Thresholds for quantitation were determined by comparison to a telomerase negative fibroblast cell line and no cell input negative control samples and untreated Hela cell positive control samples.

In experiment [5] the test system is Axin2 in DLD-1 cells. In words: Expression of Axin2 in DLD-1 cells. The format is cell-based. The conditions noted are these: exposure for 2 h. An excerpt: Aberrant transcriptional induction of Wnt/β-catenin target genes is typically observed in CRC cells that harbor loss-of-function mutations in the APC tumor suppressor. […] See Chen et al. (2007), which is incorporated herein by reference.

Experiment [6] deals with Tnks enzymes. The conditions noted are these: cited from earlier work.

T1 sequence (O14746 whole entry): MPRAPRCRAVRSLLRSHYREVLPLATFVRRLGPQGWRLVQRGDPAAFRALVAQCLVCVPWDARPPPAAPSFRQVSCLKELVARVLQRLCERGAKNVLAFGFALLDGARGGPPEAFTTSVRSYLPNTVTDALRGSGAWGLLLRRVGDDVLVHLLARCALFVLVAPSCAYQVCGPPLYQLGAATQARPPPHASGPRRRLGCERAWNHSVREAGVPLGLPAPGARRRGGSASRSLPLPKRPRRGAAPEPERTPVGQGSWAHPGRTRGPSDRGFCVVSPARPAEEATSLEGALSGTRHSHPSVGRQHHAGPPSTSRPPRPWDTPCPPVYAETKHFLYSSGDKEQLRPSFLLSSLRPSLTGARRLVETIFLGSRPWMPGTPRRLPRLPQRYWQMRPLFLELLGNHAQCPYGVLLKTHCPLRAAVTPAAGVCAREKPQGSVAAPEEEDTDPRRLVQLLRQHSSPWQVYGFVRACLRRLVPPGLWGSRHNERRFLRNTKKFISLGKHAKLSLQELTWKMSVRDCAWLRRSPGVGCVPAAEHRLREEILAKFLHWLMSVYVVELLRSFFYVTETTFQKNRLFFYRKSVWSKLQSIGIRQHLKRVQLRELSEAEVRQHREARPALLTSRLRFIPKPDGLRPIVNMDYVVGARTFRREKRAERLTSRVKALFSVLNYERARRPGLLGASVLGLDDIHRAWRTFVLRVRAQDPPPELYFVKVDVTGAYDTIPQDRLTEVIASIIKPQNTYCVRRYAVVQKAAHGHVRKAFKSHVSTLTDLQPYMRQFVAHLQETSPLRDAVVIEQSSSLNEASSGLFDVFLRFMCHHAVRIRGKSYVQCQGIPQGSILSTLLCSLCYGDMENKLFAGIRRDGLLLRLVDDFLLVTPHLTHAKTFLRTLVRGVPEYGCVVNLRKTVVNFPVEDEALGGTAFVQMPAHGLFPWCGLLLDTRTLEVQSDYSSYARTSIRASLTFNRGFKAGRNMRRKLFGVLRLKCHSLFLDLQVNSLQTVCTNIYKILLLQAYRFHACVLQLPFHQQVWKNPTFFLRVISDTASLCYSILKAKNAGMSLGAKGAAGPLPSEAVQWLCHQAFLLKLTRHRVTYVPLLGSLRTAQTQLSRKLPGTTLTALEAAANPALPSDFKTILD
T1 sequence (O60832 whole entry partner): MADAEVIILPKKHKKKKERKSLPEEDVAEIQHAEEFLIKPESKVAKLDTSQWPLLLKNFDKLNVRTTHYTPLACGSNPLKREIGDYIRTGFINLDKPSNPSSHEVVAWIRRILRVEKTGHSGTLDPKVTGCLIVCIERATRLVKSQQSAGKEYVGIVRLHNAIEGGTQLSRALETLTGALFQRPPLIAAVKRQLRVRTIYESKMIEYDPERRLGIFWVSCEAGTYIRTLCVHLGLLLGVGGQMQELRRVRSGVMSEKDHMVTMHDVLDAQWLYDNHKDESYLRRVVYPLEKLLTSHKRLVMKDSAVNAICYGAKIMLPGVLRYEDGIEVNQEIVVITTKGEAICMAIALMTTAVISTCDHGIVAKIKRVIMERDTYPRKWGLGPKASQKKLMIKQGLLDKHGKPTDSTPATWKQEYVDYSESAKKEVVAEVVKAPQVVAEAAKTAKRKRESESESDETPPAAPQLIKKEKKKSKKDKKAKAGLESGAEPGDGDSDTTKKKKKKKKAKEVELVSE
T1 sequence (Q9NPE3 whole entry partner): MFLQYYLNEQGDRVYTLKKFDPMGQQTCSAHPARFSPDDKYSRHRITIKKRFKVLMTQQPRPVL
T1 sequence (Q9NX24 whole entry partner): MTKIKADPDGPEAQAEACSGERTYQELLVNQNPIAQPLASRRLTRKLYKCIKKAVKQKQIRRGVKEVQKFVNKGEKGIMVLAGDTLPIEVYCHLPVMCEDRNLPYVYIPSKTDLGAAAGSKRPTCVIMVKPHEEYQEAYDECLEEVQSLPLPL
T1 sequence (Q9NY12 whole entry partner): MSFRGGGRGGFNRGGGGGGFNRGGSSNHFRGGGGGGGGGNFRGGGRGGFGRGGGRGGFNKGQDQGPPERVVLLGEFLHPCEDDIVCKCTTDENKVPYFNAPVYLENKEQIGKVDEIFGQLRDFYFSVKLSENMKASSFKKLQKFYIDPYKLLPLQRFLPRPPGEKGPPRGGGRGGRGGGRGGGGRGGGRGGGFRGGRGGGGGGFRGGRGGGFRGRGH
T1 sequence (Q9BUR4 whole entry partner): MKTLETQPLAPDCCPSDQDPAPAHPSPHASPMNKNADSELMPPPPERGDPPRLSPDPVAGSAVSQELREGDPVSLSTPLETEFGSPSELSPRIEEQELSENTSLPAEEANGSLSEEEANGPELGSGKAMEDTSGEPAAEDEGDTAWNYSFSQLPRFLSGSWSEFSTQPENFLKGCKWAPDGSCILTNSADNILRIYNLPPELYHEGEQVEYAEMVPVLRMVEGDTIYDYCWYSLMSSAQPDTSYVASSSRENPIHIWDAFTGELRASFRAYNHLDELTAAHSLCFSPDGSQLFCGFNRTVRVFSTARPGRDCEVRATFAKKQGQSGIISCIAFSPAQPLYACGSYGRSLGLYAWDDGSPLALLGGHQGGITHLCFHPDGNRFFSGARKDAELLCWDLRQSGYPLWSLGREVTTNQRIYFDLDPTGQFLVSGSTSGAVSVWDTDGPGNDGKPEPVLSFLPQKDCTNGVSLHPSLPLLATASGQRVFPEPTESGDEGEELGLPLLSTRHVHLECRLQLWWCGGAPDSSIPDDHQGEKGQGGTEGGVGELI

As to `CCN(C(=O)C1CCN(S(=O)(=O)c2cc3c(cc2Br)CCN3C(C)=O)CC1)c1cccc(C)c1` [IWR-8], in experiment [1], the “β-catenin activity induced by loss of APC function” value is listed as “inhibits β-catenin activity induced by loss of APC function”. Also, in experiment [2], the “cell growth in a cancer cell line with compromised APC function” value is “inhibits cell growth”.
On to `O=C(Nc1cccc2cccnc12)c1ccc(N2C(=O)[C@@H]3[C@H](C2=O)[C@@H]2C=C[C@H]3C2)cc1` [IWR-1], for which, in experiment [3], the “Tnks and Axin protein levels” value is “induce stabilization of both Tnks enzymes and Axin proteins”; the β-catenin protein level entry is given as “promote destruction of β-catenin”. Moreover, the telomerase activity entry in experiment [4] was “direct inactivation of telomerase by Tnks inhibitors was ruled out”. In addition, the “expression of Axin2” value in experiment [5] is listed as “decrease in the expression of Axin2”. For the same compound, the “specificity for Tnks enzymes over several other PARPs compared to XAV-939” value in experiment [6] is on record as around 100 fold.

The record behind these values is US10420758B2, “Indolinyl-sulfonamide inhibitors of tankyrase and methods of use thereof” (The Board of Regents of the University of Texas System, priority 2015, dated 2019).
